From US20220177459A1, “AROMATIC AMINE COMPOUND AND USE THEREOF IN PREPARATION OF AR AND BRD4 DUAL INHIBITORS AND REGULATORS” (HINOVA PHARMACEUTICALS INC., priority 2019, published 2022)

tested on: LNCaP/AR cells; experiment: Inhibition of proliferation of prostate cancer cells LNCaP/AR (CCK-8); format: cell-based; conditions: 144 h, 6 days culture, CCK-8, OD 450 nm, read-out: IC50 (μM), inhibitory activity on prostate cancer cell LNCap/AR
Protocol: 1. Biological determination of the inhibitory effect on the proliferation of prostate cancer cells LNCaP/AR
Cell culture medium: RIPM1640 media, 10% FBS, 1% Pen Strep;
1) LNCaP/AR cells were subcultured in cell culture medium, and the cells in good growth condition were seeded in a 96-well plate, with 80 μL per well (i.e. 1000 cells per well), and cultured overnight in a 37° C., 5% CO2 cell incubator.
2) The drug was prepared with dimethylsulfoxide (DMSO) as a 10 mM stock solution.
Immediately before use, the stock solution was diluted 3 times with DMSO, and then diluted as a 3-fold gradient to obtain 9 concentration gradients. Then, the compound of each concentration was diluted 200 times with the culture media (to ensure that the DMSO concentration in the culture system was 0.1%), and two multiple holes were set for each concentration. 20 μL of the diluted compound was added to the cell culture well (with a final concentration of 10 μM, 3.3 μM, 1.1 μM . . . ), and then shook gently to mix. In addition, three negative control wells with only cells and three blank control wells with only culture medium were included (6 wells being each added with DMSO diluted 200 times with 20 μL culture medium).
1) After culturing for 6 days, 10 μL of CCK-8 was added to each well and continued culturing for 1 hour in a 37° C., 5% CO2 cell incubator.
2) The absorbance (OD value) was measured at 450 nm using a multifunctional microplate reader.
3) The data were analyzed by the Dose-response-inhibition equation in the software GraphPad Prism5, and the IC50 value was obtained.

Row | Compound | IC50
1 | Cc1ccc(-c2c(C)n[nH]c2C)cc1N(CCCCCO)c1ccc(C#N)c(Cl)c1 [Compound 6] | 3.67 µM
2 | CCN(c1ccc(C#N)c(Cl)c1)c1cc(-c2[nH]ncc2C)ccc1C [Compound 7] | 2.19 µM
3 | CCN(c1ccc(C#N)c(C(F)(F)F)c1)c1cc(-c2c(C)noc2C)ccc1C [Compound 16] | 1.66 µM
4 | CCN(c1ccc(-n2ccnc2)cc1)c1cc2onc(C)c2cc1C [Compound 48] | 3.7 µM
5 | CCCn1nc(C)c(-c2ccc(C)c(N(CC)c3ccc(C#N)c(Cl)c3)c2)c1C [Compound 5] | 1.45 µM
6 | CCN(c1ccc(C#N)c(Cl)c1)c1cc(-c2c(C)nn(CC)c2C)ccc1C [Compound 3] | 1.4 µM
7 | CCN(c1ccc(-n2ccnc2)cc1)c1cc2c(C)noc2cc1C [Compound 47] | 3.3 µM
8 | CCN(c1ccc(-n2ccnc2)c(Br)c1)c1cc(-c2c(C)noc2C)cnc1C [Compound 67] | 2.03 µM
9 | CCN(c1ccc(C#N)c(Cl)c1)c1cc(-c2c(C)nn(C(C)C)c2C)ccc1C [Compound 4] | 1.4 µM
10 | CCN(c1ccc2ncn(C)c2c1)c1cc(-c2c(C)noc2C)ccc1C [Compound 132] | 2.54 µM
11 | CCN(c1ccc(C#N)c(Cl)c1)c1cc(-c2c(C)n[nH]c2C)ccc1C [Compound 1] | 0.33 µM
12 | CCN(c1ccc(-n2ccnc2)cc1)c1cc(-c2c(C)nn(CCO)c2C)ccc1C [Compound 23] | 6.42 µM
13 | CCN(c1ccc(-n2cnc(C)c2)c(Br)c1)c1cc(-c2c(C)noc2C)ccc1C [Compound 57] | 2.38 µM
14 | Cc1ccc(-c2c(C)noc2C)cc1N(CCO)c1ccc(-n2ccnc2)c(Br)c1 [Compound 58] | 2.32 µM

Next, values leading:

Row | IC50 | Compound
15 | 3.67 µM | CCN(c1ccc(-c2cnc[nH]2)cc1)c1cc(-c2c(C)noc2C)ccc1C [Compound 107]
16 | 0.89 µM | CCN(c1ccc2cn[nH]c2c1)c1cc(-c2c(C)noc2C)ccc1C [Compound 114]
17 | 1.2 µM | CCN(c1ccc(-n2cncn2)cc1)c1cc(-c2c(C)noc2C)ccc1C [Compound 35]
18 | 1.25 µM | CCN(c1ccc(-n2ccnc2)cc1)c1cc(-c2c(C)noc2C)ccc1C [Compound 25]
19 | 4.77 µM | CCN(c1ccc(-c2csc(N)n2)cc1)c1cc(-c2c(C)noc2C)ccc1C [Compound 98, 4-(4-((5-(3,5-dimethylisoxazol-4-)-2-methylphenyl)(ethyl)amino)phenyl)thiazol-2-amine]
20 | 0.71 µM | CCN(c1ccc(-c2ncon2)cc1)c1cc(-c2c(C)noc2C)ccc1C [Compound 105, N-(4-(1,2,4-oxadiazole-3-yl)phenyl)-5-(3,5-dimethylisoxazol-4-yl)-N-ethyl-2-methylaniline]
21 | 1.45 µM | CCN(c1ccc(-c2cn(C)nn2)cc1)c1cc(-c2c(C)noc2C)ccc1C [Compound 102, 5-(3,5-dimethylisoxazol-4-yl)-N-ethyl-2-methyl-N-(4-(1-methyl-1H-1,2,3-triazol-4-yl)phenyl)aniline]
22 | 4.46 µM | CCN(c1ccc(OC(F)(F)F)cc1)c1cc(-c2c(C)noc2C)ccc1C [Compound 109]
23 | 0.4 µM | CCN(c1ccc([N+](=O)[O-])cc1)c1cc(-c2c(C)noc2C)ccc1C [Compound 99]
24 | 0.7 µM | CCN(c1ccc(-c2cncn2C)cc1)c1cc(-c2c(C)noc2C)ccc1C [Compound 106]
25 | 0.7 µM | CCN(c1ccc(N)cc1)c1cc(-c2c(C)noc2C)ccc1C [Compound 100, N-1-(5-(3,5-dimethylisoxazol-4-yl)-2-methylphenyl) N1-ethylbenzene-1,4-diamine]
26 | 1.3 µM | CCN(c1ccc2nc[nH]c2c1)c1cc(-c2c(C)noc2C)ccc1C [Compound 115, N-(5-(3,5-dimethylisoxazol-4-yl)-2-methylphenyl) N-ethyl-1H-benzo[d]imidazole-6-amine]
27 | 1.16 µM | CCN(c1ccc(-c2nnc[nH]2)cc1)c1cc(-c2c(C)noc2C)ccc1C [Compound 130]
28 | 2.53 µM | CCN(c1ccc(S(C)(=O)=O)cc1)c1cc(-c2c(C)noc2C)ccc1C [Compound 113]
29 | 0.88 µM | CCN(c1ccc(-c2c[nH]nn2)cc1)c1cc(-c2c(C)noc2C)ccc1C [Compound 131]
